Columns and labels:
[1] = system: Pseudomonas; assay: Bacterial proliferation assay (Colony Forming Units) with added silver; type: cell-based; conditions: for added Ag^+ concentration at which antibacterial efficacy is apparent: 0.3 ppm is the lowest concentration measured (range 0.3 to 300 ppm)
Procedure: To assess the antibacterial efficacy of the silver, and to correlate this with the sensor response, bacterial proliferation assays were performed on MHB2, PBS, NaNO3 and SWF solutions with added silver at concentrations between 0.3 to 300 ppm.

[2] = Optical density measurements indicating AgCl precipitates/aggregates in solution; type: physicochemical; conditions: no bacteria present
Source text: Optical density measurements can be used to indicate the presence of AgCl precipitates/aggregates in solution. […] No bacteria where present for the measurements.

## [Ag+] [Ag^+, silver ions]
[1]; NaNO3 solution
  added Ag^+ concentration at which antibacterial efficacy is apparent: ≤ 0.3 ppm
[1]; PBS solution
  added Ag^+ concentration at which antibacterial efficacy is apparent: ≤ 0.3 ppm
[1]; SWF (simulated wound fluid, 33 g/L BSA) solution
  added Ag^+ concentration at which antibacterial efficacy is seen: ≥ 30 ppm
[2]; PBS
  added Ag^+ concentration above which AgCl precipitation is seen (optical density): above 1 ppm
[2]; SWF
  added Ag^+ concentration above which AgCl precipitation is seen (optical density): above 30 ppm

— US20240215905A1, “WOUND DRESSING” (5D HEALTH PROTECTION GROUP LTD, priority 2021, published 2024)
